Laboratory results: patent publication US20240352430A1, “FoF1-ATP SYNTHASE OLIGOMER” (KYOTO UNIVERSITY, priority 2021, published 2024)

B1: IF1: ATP synthase inhibitory factor subunit 1, an endogenous inhibitory protein of a mammalian ATP synthase (protein, UniProt Q9UII2 26-106, looked up)
ATPase inhibitor, …: GSDQSENVDRGAGSIREAGGAFGKREQAEEERYFRAQSREQLAALKKHHEEEIVHHKKEIERLQKEIERHKQKIKMLKHDD

Target: T1, FoF1-ATP synthase of cultured cells derived from human (HEK293) (Homo sapiens, UniProt P05496)
T1 construct: fractions containing cultured cell FoF1-ATP synthase obtained by the first centrifugation; endogenous in cells; host or cells: HEK293 (enzyme solubilised with GDN from the mitochondrial inner membrane and fractionated on sucrose density gradients)
Assay: ATP hydrolysis activity, change in absorbance at 340 nm by NADH oxidation
Assay type: biochemical
Description: The FoF1-ATP synthase oligomer of the present invention has, in one embodiment, ATP synthesis activity or hydrolysis activity. These activities can be determined by methods well known to those skilled in the art. For example, ATP synthesis activity can be determined by using a luminescent reaction of the luciferin/luciferase system to determine the generated ATP. In addition, ATP hydrolysis activity can be determined based on absorbance changes at 340 nm by conjugating the hydrolysis reaction of ATP and the oxidation reaction from NADH (nicotinamide adenine dinucleotide) to NAD^+ in the presence of phosphoenolpyruvic acid, pyruvate kinase, and lactate dehydrogenase.
ATP hydrolysis activity of the fractions containing cultured cell FoF1-ATP synthase obtained by the first centrifugation under discontinuous density gradient of sucrose was determined. That is, the hydrolysis reaction of ATP with FoF1-ATP synthase was determined at 20° C. as change in absorbance at 340 nm by oxidation from NADH to NAD^+ conjugated with this reaction.
ATP hydrolysis activity of the samples contained in fraction 6-1 was determined in the same manner as described above in the presence or absence of oligomycin.
ATP hydrolysis activity of the samples collected from fraction 7 containing FoF1-ATP synthase tetramer and dimer was determined in the presence or absence of oligomycin, as in Example 1. If IF1, an endogenous inhibitory protein of mammalian ATP synthase, binds to FoF1-ATP synthase, the enzyme reaction is stopped. In order to release from FoF1-ATP synthase, samples collected from fraction 7 were mixed with 330 mM KCl and 100 mM Tris-HCl (pH 8.2). After incubation for 10 minutes at room temperature, ATP hydrolysis activity was determined. IF1 forms a dimer, binds between two FoF1-ATP synthase dimers, and stops the rotation of F1 present outside the membrane. As a result, ATP synthesis of the enzyme is stopped. Oligomycin binds to Fo of FoF1-ATP synthase and inhibits ATP synthesis.

Molecule	ATP hydrolysis activity of the sample contained in fraction 6-1 in the presence of oligomycin (fraction 6-1 of first discontinuous sucrose density gradient centrifugation, HEK293, 20° C., FIG. 7)	ATP hydrolysis activity of the sample of fraction 7 in the presence of oligomycin (fraction 7 of third continuous sucrose density gradient centrifugation, HEK293, regardless of treatment to release IF1, FIG. 12)	Enzyme inhibition of the ATP synthase contained in fraction 7 by IF1 (fraction 7, third centrifugation, activity compared with and without treatment to release IF1 (330 mM KCl, 100 mM Tris-HCl pH 8.2, 10 minutes), FIG. 12)
CC[C@H]1/C=C/C=C/C[C@@H](C)[C@H](O)[C@@](C)(O)C(=O)[C@@H](C)[C@H](O)[C@@H](C)C(=O)[C@@H](C)[C@H](O)[C@@H](C)/C=C/C(=O)O[C@@H]2[C@H](C)[C@H](CC1)O[C@]1(CC[C@H](C)[C@H](C[C@@H](C)O)O1)[C@H]2C [oligomycin]	inhibited	did not exhibit ATP hydrolysis activity	–
B1	–	–	undergoes enzyme inhibition by IF1
